Activity calls are given as the source filed them. No cut-off for these calls is given here.
What was measured:
[1] = target: T1, EKC/KEOPS complex subunit TP53RK (Homo sapiens) (UniProt Q96S44); assay: Inhibition of PRPK ATP labeling site in human Huh-7 cell lysate at 1 uM by KiNativ Profiling analysis relative to control; assay type: subcellular
T1 sequence (whole entry): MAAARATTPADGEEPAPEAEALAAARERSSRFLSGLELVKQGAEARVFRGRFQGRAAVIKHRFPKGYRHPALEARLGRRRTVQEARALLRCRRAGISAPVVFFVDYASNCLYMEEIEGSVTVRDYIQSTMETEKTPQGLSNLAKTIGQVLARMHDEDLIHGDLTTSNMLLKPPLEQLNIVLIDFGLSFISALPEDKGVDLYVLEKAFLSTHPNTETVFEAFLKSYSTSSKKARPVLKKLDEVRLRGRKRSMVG

[2] = target: T2, Mitogen-activated protein kinase kinase kinase 7 (Homo sapiens) (UniProt O43318); assay: Inhibition of TAK1 Lys2 labeling site harbouring DLKPPNLLLVAGGTVLK in human Huh-7 cells at 1 uM by KiNativ Profiling analysis relative to control; assay type: cell-based
T2 sequence (whole entry): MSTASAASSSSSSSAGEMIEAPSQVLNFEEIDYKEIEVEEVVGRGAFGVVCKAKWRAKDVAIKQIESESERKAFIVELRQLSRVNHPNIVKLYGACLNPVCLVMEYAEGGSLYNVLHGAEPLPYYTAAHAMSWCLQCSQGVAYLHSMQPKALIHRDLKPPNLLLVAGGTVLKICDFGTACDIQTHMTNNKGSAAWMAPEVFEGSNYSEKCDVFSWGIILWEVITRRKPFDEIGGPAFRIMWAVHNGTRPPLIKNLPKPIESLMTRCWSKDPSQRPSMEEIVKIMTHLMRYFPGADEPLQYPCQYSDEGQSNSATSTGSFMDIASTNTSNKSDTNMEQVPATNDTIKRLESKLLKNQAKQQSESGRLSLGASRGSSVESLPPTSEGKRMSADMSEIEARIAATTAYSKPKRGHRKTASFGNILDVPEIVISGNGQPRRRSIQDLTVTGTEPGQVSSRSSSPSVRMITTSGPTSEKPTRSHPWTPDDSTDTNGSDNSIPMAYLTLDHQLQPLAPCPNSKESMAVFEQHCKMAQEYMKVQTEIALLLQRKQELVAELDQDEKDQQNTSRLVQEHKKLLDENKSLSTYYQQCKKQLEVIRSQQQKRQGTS

[3] = target: Proto-oncogene tyrosine-protein kinase Src (Homo sapiens, UniProt P12931); assay: Inhibition of SRC ACT labeling site in human Huh-7 cell lysate at 1 uM by KiNativ Profiling analysis relative to control; assay type: subcellular
[4] = target: Ribosomal protein S6 kinase alpha-5 (Homo sapiens) (UniProt O75582); assay: Inhibition of MSK1 domain1 ATP labeling site in human Huh-7 cell lysate at 1 uM by KiNativ Profiling analysis relative to control; assay type: subcellular
[5] = target: 5'-AMP-activated protein kinase catalytic subunit alpha-2 (Homo sapiens) (UniProt P54646); assay: Inhibition of AMPKa2 Lys1 labeling site in human Huh-7 cells at 1 uM by KiNativ Profiling analysis relative to control; assay type: cell-based
[6] = target: Interleukin-1 receptor-associated kinase 3 (Homo sapiens) (UniProt Q9Y616); assay: Inhibition of IRAK3 (unknown origin) at 1 uM by Ambit Kinomescan binding assay relative to control; values are per cent of control
[7] = target: Myosin light chain kinase 2, skeletal/cardiac muscle (Homo sapiens) (UniProt Q9H1R3); assay: Inhibition of MYLK2 (unknown origin) at 1 uM by Ambit Kinomescan binding assay relative to control; values are per cent of control
[8] = target: Mitogen-activated protein kinase 7 (Homo sapiens) (UniProt Q13164); assay: Inhibition of ERK5 (unknown origin) at 1 uM by Ambit Kinomescan binding assay relative to control
[9] = target: T3, Dual specificity mitogen-activated protein kinase kinase 7 (Homo sapiens) (UniProt O14733); assay: Inhibition of MKK7 (unknown origin) at 1 uM by Ambit Kinomescan binding assay relative to control
T3 sequence (whole entry): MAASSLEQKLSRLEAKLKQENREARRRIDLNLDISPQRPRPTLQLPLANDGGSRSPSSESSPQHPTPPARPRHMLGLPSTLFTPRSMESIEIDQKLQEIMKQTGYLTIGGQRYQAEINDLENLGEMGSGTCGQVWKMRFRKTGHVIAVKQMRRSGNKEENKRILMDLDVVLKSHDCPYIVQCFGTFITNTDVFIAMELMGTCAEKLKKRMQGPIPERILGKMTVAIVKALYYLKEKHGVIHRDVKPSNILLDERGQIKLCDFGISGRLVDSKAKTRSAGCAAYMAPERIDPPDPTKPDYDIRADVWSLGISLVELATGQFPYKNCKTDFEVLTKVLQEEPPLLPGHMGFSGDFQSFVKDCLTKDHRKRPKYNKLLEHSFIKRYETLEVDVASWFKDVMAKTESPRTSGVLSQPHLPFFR

[10] = target: Insulin-like growth factor 1 receptor (Homo sapiens) (UniProt P08069); assay: Inhibition of IGF1R (unknown origin) at 10 uM by Ambit Kinomescan binding assay
[11] = target: Tyrosine-protein kinase receptor TYRO3 (Homo sapiens) (UniProt Q06418); assay: Inhibition of TYRO3 (unknown origin) at 10 uM by Ambit Kinomescan binding assay
[12] = target: T4, NUAK family SNF1-like kinase 1 (Homo sapiens) (UniProt O60285); assay: Inhibition of NuaK1 K2 labeling site in human Huh-7 cells at 10 uM by KiNativ Profiling analysis relative to control; assay type: cell-based
T4 sequence (whole entry): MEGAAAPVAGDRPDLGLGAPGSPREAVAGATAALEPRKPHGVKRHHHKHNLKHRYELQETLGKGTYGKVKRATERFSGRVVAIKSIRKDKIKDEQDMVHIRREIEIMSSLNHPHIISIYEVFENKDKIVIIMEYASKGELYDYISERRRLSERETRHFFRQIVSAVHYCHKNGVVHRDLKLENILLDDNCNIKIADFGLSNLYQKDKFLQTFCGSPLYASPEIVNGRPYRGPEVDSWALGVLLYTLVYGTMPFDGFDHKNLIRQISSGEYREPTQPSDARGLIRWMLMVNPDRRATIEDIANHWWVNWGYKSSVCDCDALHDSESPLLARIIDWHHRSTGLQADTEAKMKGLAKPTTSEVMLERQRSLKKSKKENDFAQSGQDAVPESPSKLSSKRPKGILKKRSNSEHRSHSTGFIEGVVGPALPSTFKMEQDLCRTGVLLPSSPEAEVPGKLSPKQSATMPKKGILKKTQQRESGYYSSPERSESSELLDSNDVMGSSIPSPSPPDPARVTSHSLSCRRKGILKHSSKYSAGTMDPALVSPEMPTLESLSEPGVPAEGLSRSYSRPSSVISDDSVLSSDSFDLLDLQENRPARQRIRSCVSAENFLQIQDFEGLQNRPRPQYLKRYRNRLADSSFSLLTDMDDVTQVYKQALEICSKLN

[13] = target: Wee1-like protein kinase (Homo sapiens) (UniProt P30291); assay: Inhibition of WEE1 (unknown origin) at 10 uM by Ambit Kinomescan binding assay
Wee1-like protein kinase (Homo sapiens), sequence (P30291 whole entry, looked up): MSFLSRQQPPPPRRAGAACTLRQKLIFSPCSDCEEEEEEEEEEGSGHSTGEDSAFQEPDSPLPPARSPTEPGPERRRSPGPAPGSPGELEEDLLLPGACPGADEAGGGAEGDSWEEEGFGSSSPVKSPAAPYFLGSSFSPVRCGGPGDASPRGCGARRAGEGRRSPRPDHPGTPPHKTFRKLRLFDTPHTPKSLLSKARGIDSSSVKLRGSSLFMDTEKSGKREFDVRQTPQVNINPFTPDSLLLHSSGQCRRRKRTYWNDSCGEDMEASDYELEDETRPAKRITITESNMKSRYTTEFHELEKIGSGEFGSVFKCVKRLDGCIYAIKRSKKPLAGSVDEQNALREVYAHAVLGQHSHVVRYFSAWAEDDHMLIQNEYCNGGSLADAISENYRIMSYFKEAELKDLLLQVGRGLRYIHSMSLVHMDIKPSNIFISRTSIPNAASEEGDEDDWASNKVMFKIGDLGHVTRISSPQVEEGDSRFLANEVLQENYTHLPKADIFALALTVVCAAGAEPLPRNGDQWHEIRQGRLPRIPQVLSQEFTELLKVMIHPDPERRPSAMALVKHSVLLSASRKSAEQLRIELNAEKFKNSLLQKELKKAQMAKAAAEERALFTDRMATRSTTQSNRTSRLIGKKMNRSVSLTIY

Insulin-like growth factor 1 receptor (Homo sapiens), sequence (P08069 31-736 limits assumed): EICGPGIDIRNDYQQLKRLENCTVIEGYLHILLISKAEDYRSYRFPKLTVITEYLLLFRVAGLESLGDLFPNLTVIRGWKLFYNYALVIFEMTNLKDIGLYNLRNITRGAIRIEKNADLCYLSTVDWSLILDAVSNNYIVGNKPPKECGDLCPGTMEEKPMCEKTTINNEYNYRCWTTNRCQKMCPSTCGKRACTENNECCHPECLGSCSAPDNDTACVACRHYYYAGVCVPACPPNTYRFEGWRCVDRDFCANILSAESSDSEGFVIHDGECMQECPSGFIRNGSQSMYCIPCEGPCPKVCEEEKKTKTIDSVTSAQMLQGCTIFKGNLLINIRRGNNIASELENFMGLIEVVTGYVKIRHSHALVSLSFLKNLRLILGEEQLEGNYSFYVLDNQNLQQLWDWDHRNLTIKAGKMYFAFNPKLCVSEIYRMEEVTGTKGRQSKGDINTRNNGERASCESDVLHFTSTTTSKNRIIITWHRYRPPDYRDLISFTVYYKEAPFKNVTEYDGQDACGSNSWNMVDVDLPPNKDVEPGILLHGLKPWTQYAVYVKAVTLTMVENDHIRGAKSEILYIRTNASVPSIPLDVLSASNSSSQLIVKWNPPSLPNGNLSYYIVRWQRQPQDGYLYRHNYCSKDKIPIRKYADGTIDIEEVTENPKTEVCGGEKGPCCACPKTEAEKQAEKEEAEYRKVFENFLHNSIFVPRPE
Insulin-like growth factor 1 receptor (Homo sapiens), sequence (P08069 741-1367 limits assumed): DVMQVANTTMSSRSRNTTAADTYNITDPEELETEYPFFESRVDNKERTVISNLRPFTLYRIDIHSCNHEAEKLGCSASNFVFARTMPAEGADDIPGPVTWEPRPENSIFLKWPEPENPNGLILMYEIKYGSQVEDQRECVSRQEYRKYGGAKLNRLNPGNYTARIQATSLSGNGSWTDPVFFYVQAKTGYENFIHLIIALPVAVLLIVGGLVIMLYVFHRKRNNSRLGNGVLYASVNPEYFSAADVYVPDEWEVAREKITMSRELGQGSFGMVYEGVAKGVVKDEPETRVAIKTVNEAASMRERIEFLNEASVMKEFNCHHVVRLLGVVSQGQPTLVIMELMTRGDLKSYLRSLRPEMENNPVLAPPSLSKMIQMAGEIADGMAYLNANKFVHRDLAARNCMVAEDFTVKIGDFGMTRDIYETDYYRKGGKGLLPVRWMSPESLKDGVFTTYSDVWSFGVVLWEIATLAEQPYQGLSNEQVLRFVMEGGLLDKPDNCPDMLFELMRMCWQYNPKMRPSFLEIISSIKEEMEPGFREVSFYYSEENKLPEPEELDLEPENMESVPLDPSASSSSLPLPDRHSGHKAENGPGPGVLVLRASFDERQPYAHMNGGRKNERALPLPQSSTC
Mitogen-activated protein kinase 7 (Homo sapiens), sequence (Q13164 2-816 limits assumed): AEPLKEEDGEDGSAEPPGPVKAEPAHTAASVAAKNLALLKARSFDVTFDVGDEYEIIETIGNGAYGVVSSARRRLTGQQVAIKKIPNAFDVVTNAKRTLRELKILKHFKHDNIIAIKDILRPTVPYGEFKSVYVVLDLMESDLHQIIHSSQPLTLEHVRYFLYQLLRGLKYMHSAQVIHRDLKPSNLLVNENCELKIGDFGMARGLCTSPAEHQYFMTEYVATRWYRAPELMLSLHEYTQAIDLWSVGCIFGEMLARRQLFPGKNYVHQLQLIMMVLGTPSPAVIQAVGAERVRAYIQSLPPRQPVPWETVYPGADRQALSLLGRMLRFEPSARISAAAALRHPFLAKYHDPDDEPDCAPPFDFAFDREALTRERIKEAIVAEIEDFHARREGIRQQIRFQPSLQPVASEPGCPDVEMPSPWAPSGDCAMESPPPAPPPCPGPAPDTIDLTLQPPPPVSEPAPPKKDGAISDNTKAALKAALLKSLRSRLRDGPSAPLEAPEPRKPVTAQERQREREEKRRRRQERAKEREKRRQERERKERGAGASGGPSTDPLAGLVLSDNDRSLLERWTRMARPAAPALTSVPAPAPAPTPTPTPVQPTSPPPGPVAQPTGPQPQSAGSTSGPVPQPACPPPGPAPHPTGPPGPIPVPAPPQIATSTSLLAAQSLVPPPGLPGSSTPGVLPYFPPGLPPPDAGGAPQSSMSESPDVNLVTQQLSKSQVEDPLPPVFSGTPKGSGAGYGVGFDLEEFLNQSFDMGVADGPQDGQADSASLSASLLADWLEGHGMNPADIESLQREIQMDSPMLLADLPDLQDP
Proto-oncogene tyrosine-protein kinase Src, sequence (P12931 2-536 limits assumed): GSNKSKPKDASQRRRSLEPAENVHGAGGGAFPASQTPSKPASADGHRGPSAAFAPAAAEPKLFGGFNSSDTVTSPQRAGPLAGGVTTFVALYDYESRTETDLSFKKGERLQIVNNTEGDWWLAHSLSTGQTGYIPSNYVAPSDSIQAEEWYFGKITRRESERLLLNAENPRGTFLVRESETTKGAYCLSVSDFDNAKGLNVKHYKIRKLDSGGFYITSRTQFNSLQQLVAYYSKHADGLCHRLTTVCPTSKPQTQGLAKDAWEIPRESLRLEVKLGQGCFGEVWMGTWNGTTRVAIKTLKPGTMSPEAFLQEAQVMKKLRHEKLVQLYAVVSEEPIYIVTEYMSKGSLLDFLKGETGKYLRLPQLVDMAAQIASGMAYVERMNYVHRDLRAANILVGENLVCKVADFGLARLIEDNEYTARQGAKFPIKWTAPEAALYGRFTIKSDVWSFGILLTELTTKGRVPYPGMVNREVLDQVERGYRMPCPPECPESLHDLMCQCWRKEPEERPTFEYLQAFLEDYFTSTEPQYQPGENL
5'-AMP-activated protein kinase catalytic subunit alpha-2 (Homo sapiens), sequence (P54646 whole entry, looked up): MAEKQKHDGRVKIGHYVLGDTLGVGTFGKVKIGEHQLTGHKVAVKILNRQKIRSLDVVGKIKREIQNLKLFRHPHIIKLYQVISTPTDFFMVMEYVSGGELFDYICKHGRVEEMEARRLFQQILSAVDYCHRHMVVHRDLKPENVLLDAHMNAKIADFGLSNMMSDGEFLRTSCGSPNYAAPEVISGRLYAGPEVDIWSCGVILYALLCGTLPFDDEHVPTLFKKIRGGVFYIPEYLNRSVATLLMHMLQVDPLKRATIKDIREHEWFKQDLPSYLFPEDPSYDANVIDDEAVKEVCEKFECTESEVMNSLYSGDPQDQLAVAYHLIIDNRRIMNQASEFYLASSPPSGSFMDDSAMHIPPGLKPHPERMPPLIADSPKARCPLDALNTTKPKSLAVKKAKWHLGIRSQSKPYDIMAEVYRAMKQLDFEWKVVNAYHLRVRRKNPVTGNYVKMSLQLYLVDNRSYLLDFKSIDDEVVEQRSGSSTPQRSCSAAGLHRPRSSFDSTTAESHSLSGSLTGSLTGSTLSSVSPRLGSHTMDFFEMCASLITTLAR
Ribosomal protein S6 kinase alpha-5 (Homo sapiens), sequence (O75582 whole entry, looked up, the tested form may be a part): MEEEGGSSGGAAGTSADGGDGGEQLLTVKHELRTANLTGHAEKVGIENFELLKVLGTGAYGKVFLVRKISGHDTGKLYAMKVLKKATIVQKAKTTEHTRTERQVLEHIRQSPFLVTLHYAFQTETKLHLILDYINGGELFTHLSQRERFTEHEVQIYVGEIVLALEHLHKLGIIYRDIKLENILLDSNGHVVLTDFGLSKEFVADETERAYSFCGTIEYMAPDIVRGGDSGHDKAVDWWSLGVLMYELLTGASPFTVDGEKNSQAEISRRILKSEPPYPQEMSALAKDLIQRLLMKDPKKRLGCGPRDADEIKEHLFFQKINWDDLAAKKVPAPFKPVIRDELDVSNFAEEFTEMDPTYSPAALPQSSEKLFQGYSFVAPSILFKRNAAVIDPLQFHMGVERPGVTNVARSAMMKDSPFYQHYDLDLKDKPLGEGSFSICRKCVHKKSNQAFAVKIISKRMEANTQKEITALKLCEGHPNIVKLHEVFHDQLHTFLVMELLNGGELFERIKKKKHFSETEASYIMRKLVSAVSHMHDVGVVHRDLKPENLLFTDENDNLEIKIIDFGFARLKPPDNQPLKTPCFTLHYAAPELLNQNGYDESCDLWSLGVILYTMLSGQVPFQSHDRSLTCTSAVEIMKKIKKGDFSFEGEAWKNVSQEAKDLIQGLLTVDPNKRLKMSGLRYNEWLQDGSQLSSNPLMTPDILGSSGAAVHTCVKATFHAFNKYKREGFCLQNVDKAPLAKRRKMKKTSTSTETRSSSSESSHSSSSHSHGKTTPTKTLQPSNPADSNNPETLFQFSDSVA

Compound: CNc1cc(Oc2cc(C(=O)Nc3cc(N4CCN(C)CC4)cc(C(F)(F)F)c3)ccc2C)ncn1
- inhibition [1]: -6%
- inhibition [2]: 2.5%
- inhibition [3]: 22%
- inhibition [4]: -8%
- inhibition [5]: -7.5%

Compound: CCN1CCN(Cc2ccc(NC(=O)c3ccc(C)c(/C=C/c4cnc5[nH]ccc5c4OC)c3)cc2C(F)(F)F)CC1
- residual activity [6]: 76%
- residual activity [7]: 4.6%
- inhibition [8]: 83%
- inhibition [9]: 39%

Compound: CCN1CCN(Cc2ccc(NC(=O)c3ccc(C)c(Oc4ccnc5[nH]ccc45)c3)cc2C(F)(F)F)CC1
- inhibition [10]: inactive
- inhibition [11]: inactive
- inhibition [12]: 35.4%
- inhibition [13]: inactive
